For data set [1], the target named is T1, human mPGES-1 (Homo sapiens, UniProt O14684).
T1 construct: made in house
T1 sequence (O14684 1-152): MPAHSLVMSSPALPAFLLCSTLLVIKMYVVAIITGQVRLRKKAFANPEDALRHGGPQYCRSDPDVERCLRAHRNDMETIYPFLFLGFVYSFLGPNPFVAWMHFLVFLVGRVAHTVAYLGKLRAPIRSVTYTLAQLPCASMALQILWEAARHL
Kind of data set: in vitro inhibitory activity against human mPGES-1 (PGE2 ELISA assay). It counts as biochemical. To be noted: for inhibition at 10 µM: read-out: Inhibition (%) at 10 µM; for IC50: human mPGES-1. On the procedure:
The above computational predictions were followed by in vitro activity assays for their actual inhibitory activity against human mPGES-1 using an ELISA assay described in our previous reports[32]–[34]. […] Specifically, 15 FDA-approved drugs (see Fig. S1 of the Supporting Information for the molecular structures) were assayed for their inhibitory activity against human mPGES-1.
(§1) The protocol for the protein preparation and in vitro activity assays were the same as described previously[51]–[54]. The enzyme activity assays were performed on ice in 1.5 ml microfuge tubes by using the expressed human or mouse mPGES-1. The reaction mixture contained: 0.2 M Na2HPO4/NaH2PO4, pH 7.2, 10 µL; 0.1 M GSH, 2.5 µL; diluted microsomal enzyme (80 µg/mL), 1 µL; PGH2 (0.31 mM in DMF), 5 µL; 1 µL inhibitor; and H2O in a final reaction volume of 100 µL. PGH2 was stored in dry ice and used to initiate the reaction. Compounds were incubated with the enzyme for 15 min at room temperature before the addition of cold PGH2 ([…]) to initiate the enzyme reaction. After 30 s, 10 µL of SnCl2 (40 mg/mL) in ethanol was added to stop the reaction. The non-enzymatic conversion of PGH2 to PGE2 was performed in the same buffer devoid of enzyme. The reaction mixture was placed on ice until PGE2 production was determined by the PGE2 enzyme immunoassay as described earlier. IC50 values of the inhibitors were calculated by using the GraphPad Prism 7.

For data set [2], the target named is T1, human mPGES-1. Description: mPGES-1 enzyme activity at various GSH concentrations, Lineweaver-Burk plots. It counts as biochemical. On the procedure:
as §1

Data set [3] relates to mixed COX-1 and COX-2 (COX-1/2). Kind of data set: COX (ovine/human) inhibitor screening assay, mixed COX-1 and COX-2. It counts as biochemical. The conditions noted are these: 100 µM; equal amounts of COX-1 and COX-2. An excerpt:
We used a mixture of equal amounts of purified COX-1 and COX-2 proteins and followed the protocol recommended by the vendor.

The next data set concerns air-pouch PGE2 level. Kind of data set: mouse air-pouch model of inflammation (carrageenan), air-pouch PGE2 by ELISA. It counts as in vivo. On the procedure: The air-pouch fluid collected from mice were analyzed by ELISA assay for the PGE2 concentrations. GraphPad Prism 7 software (GraphPad Software, La Jolla, CA) was used to perform the one-way analysis of variance (ANOVA) with post hoc tests.
All the animal experiments were conducted in our animal laboratories in the University of Kentucky’s Division of Laboratory Animal Resources (DLAR) facility (PHS assurance number A3336-01; USDA number 61-R-0002; AAALAC, Intl. Unit # 13) following the guidelines and regulations of the AAALAC and National Institutes of Health (NIH). The animal procedure used in this project was approved by the University of Kentucky’s Institutional Animal Care and Use Committee (IACUC). The air-pouch model of inflammation[23],[55] is widely used for determining the in vivo effectiveness of inhibitors of prostaglandin synthesis. Air pouches were produced by duplicate injections of 3 mL of sterile air under the skin on the back of mice. […] The air-pouch fluid samples were analyzed for PGE2 by the same ELISA method used in the in vitro enzyme activity assay mentioned above.
GraphPad Prism 7 software (GraphPad Software, La Jolla, CA) was used to perform the one-way analysis of variance (ANOVA) with post hoc testing, allowing us to examine the significance of the difference in the in vivo activity data between each pair of dose conditions. p < 0.05 was considered statistically significant.

For data set [4] the following is noted: cited from earlier work.
The nature of data set [5]: predicted Cmax in human organs from rat organ/plasma ratios. It is filed as in vivo. The conditions noted are these: 50 mg, from rat organ/plasma ratios [56]. From the text:
In addition, the reported ratios of Cmax values in various organs of rat to Cmax in rat plasma, along with the Cmax values in human plasma, were used to predict the Cmax values in the corresponding organs of human corresponding to the Cmax values in human plasma.

For data set [6] the following is noted: human, read-out: Cmax (µM) in plasma, cited from earlier work.
For data set [7] the following is noted: mouse, in vivo; cited from earlier work.

Molecules are shown by their SMILES. Values joined by “and” are separate entries in the source; they are usually repeats but may differ in a detail not shown here. Equal values may be shown once. “Also recorded” adds a separate entry of the source. Read-outs that look alike come from different tables or passages of the source.

As to `COc1cc(C)c(/C=C/C(C)=C/C=C/C(C)=C/C(=O)O)c(C)c1C` [Acitretin], the inhibition at 10 µM on human mPGES-1 [1] (10 µM, single concentration) was determined as 83%. This compound also displayed a half-maximal inhibitory concentration (IC50) at human mPGES-1 [1] of 3.5 ± 1.6 µM.

For the compound `CC(C)(C)C(=O)OCOP(=O)(COCCn1cnc2c(N)ncnc21)OCOC(=O)C(C)(C)C` [Adefovir Dipivoxil], the inhibition at 10 µM on human mPGES-1 [1] (10 µM, single concentration) is 19%.

Turning to `COc1cc2nc(N(C)CCCNC(=O)C3CCCO3)nc(N)c2cc1OC` (stereo not drawn) [Alfuzosin], the inhibition at 10 µM at human mPGES-1 [1] (10 µM, single concentration) came out at 22%.

For the compound `CCCCC[C@H](O)/C=C/[C@H]1[C@H](O)CC(=O)[C@@H]1CCCCCCC(=O)O` [Alprostadil], the inhibition at 10 µM at human mPGES-1 [1] (10 µM, single concentration) is 11%.

Take `C=C1/C(=C\C=C2/CCC[C@]3(C)[C@@H]([C@H](C)/C=C/[C@@H](O)C4CC4)CC[C@@H]23)C[C@@H](O)C[C@@H]1O` [Calcipotriene]: the inhibition at 10 µM at human mPGES-1 [1] (10 µM, single concentration) came out at 68%. Also, on human mPGES-1 [1], the IC50 was found to be 3 ± 1.1 µM.

Consider `COCC1=C(C(=O)O)N2C(=O)[C@@H](NC(=O)/C(=N\OC)c3csc(N)n3)[C@H]2SC1` [Cefpodoxime], for which the inhibition at 10 µM on human mPGES-1 [1] (10 µM, single concentration) worked out at 47%. This compound yielded an IC50 on human mPGES-1 [1] of 29.7 ± 6.3 µM.

With `CCCCC[C@H](O)/C=C/[C@H]1[C@H](O)CC(=O)[C@@H]1C/C=C\CCCC(=O)O` [Dinoprostone], at human mPGES-1 [1] (10 µM, single concentration), the inhibition at 10 µM was determined as 4%.

For `OCCN(CCO)c1nc(N2CCCCC2)c2nc(N(CCO)CCO)nc(N3CCCCC3)c2n1` [Dipyridamole], on human mPGES-1 [1] (10 µM, single concentration), the inhibition at 10 µM is 36%.

Turning to `COc1cc2nc(N3CCN(C(=O)C4COc5ccccc5O4)CC3)nc(N)c2cc1OC` (stereo not drawn) [Doxazosin], the inhibition at 10 µM on human mPGES-1 [1] (10 µM, single concentration) came out at 21%.

As to `C[C@]12CC[C@@H]3c4ccc(OC(=O)N(CCCl)CCCl)cc4CC[C@H]3[C@@H]1CC[C@@H]2OP(=O)(O)O` [Estramustine Phosphate], on human mPGES-1 [1], the inhibition at 10 µM stood at 36%.

Regarding `CS(=O)(=O)CCNCc1ccc(-c2ccc3ncnc(Nc4ccc(OCc5cccc(F)c5)c(Cl)c4)c3c2)o1` [Lapatinib], on human mPGES-1 [2] (1 µM lapatinib), the “effect on Vmax” value was “did not significantly change”. The “mode of inhibition with respect to GSH” value on human mPGES-1 [2] (1 µM lapatinib, GSH at different concentrations) was “competes with co-factor GSH; also recorded: GSH-competitive inhibitor”. In addition, the “y-intercept of Lineweaver-Burk plot (1/Vmax)” value at human mPGES-1 [2] (in the presence of 1 µM lapatinib (0.15 ± 0.02 in the absence)) was found to be 0.18 ± 0.02. The “inhibition of COX-1/2” value in data set [3] is reported as “did not significantly inhibit”. In addition, the “effect on air-pouch PGE2 level” value with air-pouch PGE2 level (carrageenan-treated mice, PO, 24 hours) is “significantly and dose-dependently decreased”. In the data set on air-pouch PGE2 level (lapatinib 50 mg/kg PO), the “effectiveness in comparison with celecoxib 50 mg/kg (PO)” value is “less effective”. Besides, the “difference in in vivo potency versus 50 mg/kg celecoxib (PO)” value in the data set on air-pouch PGE2 level (lapatinib 100 mg/kg PO) was “no significant difference”. Also, the inhibition at 10 µM at human mPGES-1 [1] (10 µM, single concentration) was found to be 99%. Also, on human mPGES-1 [1], the IC50 was 0.8 µM and ~0.8 µM. For the same compound, the “dose-limiting toxicity (DLT)” value in data set [4] (Phase I dose-escalation, up to 7000 mg per day in twice-daily dosing) was “no dose-limiting toxicity”. In addition, the “adverse effects in phase I clinical trials” value in data set [4] (non-cancer patients) is “did not cause any serious adverse effects”. In addition, the peak concentration (Cmax) in data set [5] (read-out: Predicted Cmax (µM) Kidney) was around 1.3 µM; in data set [5] (read-out: Predicted Cmax (µM) Lung), around 2 µM; in data set [6] (10 mg, GW572016 ditosylate monohydrate oral suspension, ref Bence et al.[38]), 0.019 µM; in data set [6] (25 mg, GW572016 ditosylate monohydrate oral suspension, ref Bence et al.[38]), 0.04 µM; in data set [6] (50 mg, GW572016 ditosylate monohydrate oral suspension, ref Bence et al.[38]) it was 0.124 µM; in data set [6] (100 mg, GW572016 ditosylate monohydrate oral suspension, ref Bence et al.[38]) it was 0.213 µM. For the same compound, the Cmax in data set [6] (175 mg, GW572016 ditosylate monohydrate oral suspension, ref Bence et al.[38]) is 0.38 µM; in data set [6] (250 mg, GW572016 ditosylate monohydrate oral suspension, ref Bence et al.[38]), 0.546 µM; in data set [6] (500 mg, 100-mg and 250-mg tablets, daily oral, ref clinical trial EGF10004), 1.76 µM; in data set [6] (650 mg, 100-mg and 250-mg tablets, daily oral, ref clinical trial EGF10004), 2.24 µM; in data set [6] (900 mg, 100-mg and 250-mg tablets, daily oral, ref clinical trial EGF10004) it was 2.93 µM; in data set [6] (1000 mg, 100-mg and 250-mg tablets, daily oral, ref clinical trial EGF10004), 3.18 µM. In addition, the Cmax in data set [6] (1250 mg orally once daily, ref clinical trial NCT00477464) was 6.06 µM; in data set [6] (1500 mg, 6 pills at 250 mg once oral daily, average of 36 data points from 6 subgroups, ref clinical trial NCT00486954 and NCT01138046) it was 8.6 µM.

Turning to `CC1(C)S[C@@H]2[C@H](NC(=O)COc3ccccc3)C(=O)N2[C@H]1C(=O)O` [Penicillin V Potassium], the inhibition at 10 µM on human mPGES-1 [1] (10 µM, single concentration) was found to be 36%.

In the case of `C[C@]12C=CC(=O)C=C1CC[C@@H]1[C@@H]2[C@@H](O)C[C@@]2(C)[C@H]1CC[C@]2(O)C(=O)CO` [Prednisolone], the inhibition at 10 µM on human mPGES-1 [1] (10 µM, single concentration) was 44%.

Turning to `Cc1ccccc1C(=O)Nc1ccc(C(=O)N2CCCC(O)c3cc(Cl)ccc32)c(C)c1` (stereo not drawn) [Tolvaptan], the inhibition at 10 µM at human mPGES-1 [1] (10 µM, single concentration) was 52%. At human mPGES-1 [1], this compound showed an IC50 of 10.2 ± 2.5 µM.

For the compound `CCOC(=O)[C@H](CCc1ccccc1)N[C@@H](C)C(=O)N1[C@H](C(=O)O)C[C@H]2CCCC[C@@H]21` [Trandolapril], on human mPGES-1 [1] (10 µM, single concentration), the inhibition at 10 µM was found to be 54%. In addition, at human mPGES-1 [1], the midpoint of inhibition, the IC50, lay at 9 ± 2.3 µM.

On to `Cc1ccc(-c2cc(C(F)(F)F)nn2-c2ccc(S(N)(=O)=O)cc2)cc1` [celecoxib], for which the toxicity in mice entry in data set [7] is “significant toxicity”.

The values are drawn from article PMC7311425, “DREAM-in-CDM Approach and Identification of a New Generation of Anti-inflammatory Drugs Targeting mPGES-1” (Scientific Reports, 2020).
